Measurements: patent publication US9096841B2, “Preparation of beta-amino acids” (BASF SE, priority 2009, dated 2015)
Values belong to the compound of their own block, whether it stands above or below them.

Legend:
[1] = tested on: hydantoinase (obtained from Sigma); test: Hydantoinase catalysed hydrolysis of racemic 6-PDHU and reverse cyclisation, chiral reverse-phase HPLC; format: biochemical, Vigna angularis; conditions: for cyclisation of N-carbamoyl-β-phenylalanine (reverse reaction): with hydantoinase
Method: Unless otherwise stated all experiments were carried out on a 5 mM scale of 6-PDHU (4.75 mg) in 5 mL tris buffer (0.1 M pH 7.5) with 1U of commercially available hydantoinase from Vigna angularis (35 mg, obtained from Sigma, St. Louis, USA) in 15 mL Falcon tubes, incubated in a thermomixer (Falcon) at 750 rpm and a temperature of 50° C.
For chiral rpHPLC the following column, buffer and running conditions were used: • Astec Chirobiotic™ T 25 cm×4.6 mm, 5 μm (Sigma-Aldrich, St. Louis, USA) Ammonium Acetate buffer (pH 5.5):Methanol, 70:30, 25° C., 0.5 mL/min
Initially the hydantoinase (obtained form Sigma, St. Louis, USA) catalysed hydrolysis of (±)-6-PDHU (racemic 6-phenyldihydrouracil) (4a in FIG. 2: R=Ph) was studied as a model system. Reactions were carried out at a substrate concentration of 5 mM in Tris buffer [pH 7.5] and monitored by reverse-phase chiral HPLC as described in Example 7, which allowed simultaneous determination of both the extent of conversion in the reaction and also the enantiomeric excess of unreacted dihydrouracil 4a and the N-carbamoyl derivative 5 (FIG. 4, cf. also Scheme 2). […] All reactions gave an equilibrium concentration of 6-PDHU:(S)-NCBPA=51:49. The enantiomeric excess of (S)-NCBPA exceeded 96% during the whole observation period.

[2] = pH dependency of chemical hydrolysis of 6-PDHU in Tris buffer without enzyme; format: physicochemical; conditions: 24 hours, no enzyme
Method: 6-PDHU was incubated at 50° C. for 24 hours in Tris buffer at different pH values. Appreciable background hydrolysis of 6-PDHU occurred with a strong pH and buffer dependency. In Tris buffer at pH 7, a background hydrolysis of 0.5% was observed. At pH 9, the background hydrolysis amounted to ca. 20% (FIG. 7).

[3] = tested on: D-hydantoinase (Sigma); test: Substrate specificity of Vigna angularis hydantoinase; format: biochemical; conditions: Tris buffer pH 7.5, 0.1 M; D-hydantoinase 7 g/L; substrate 5 mM
Method: Various substrates were synthesized as described in Example 4 and subjected to hydantoinase catalyzed conversion [Tris buffer (pH 7.5, 0.1 M, 1.0 mL), D-hydantoinase, (Sigma, 7 g/L), substrate (5 mM solutions predissolved in buffer unless aromatic substituent (4a, 4b, 4c), in which case substrate is dissolved in 100 microlitres DMSO and added to 900 microlitres of buffer)]. The reaction is shown in FIG. 10, the results are shown in Table 4, wherein the E-value is defined as follows: E value=(ln(1−[product](1+ee)))/(ln(1−[product]*(1−ee)))

[4] = tested on: D-hydantoinase from Sigma; test: pH/buffer dependency of hydantoinase conversion of 6-PDHU; format: biochemical, Vigna angularis; conditions: 22 hours
Method: 6-PDHU was incubated in phosphate buffer (0.1 M, potassium dihydrogen phosphate and dipotassium hydrogen phosphate, volumes adjusted to the appropriate pH) or Tris buffer at various pH values for (up to 8h, using 7 g/L D-hydantoinase from Sigma). […] In an additional experiment conversion rates were determined for phosphate or Tris buffers at various pH values over time. 5 mM 6-PHDU was incubated in phosphate buffer (pH 6.0, 7.0, 7.5, 8.0) and Tris buffer (pH 7.5) buffers for 22 hours. The results are shown in FIG. 9 (wherein diamonds, squares, triangles and crosses represent phosphate buffer at pH 6, pH 7, pH 7.5 or pH 8, respectively, and dots represents Tris buffer at pH 7.5) and Table 3 (ee=enantiomeric excess [%]).

[5] = tested on: Pseudomonas putida IFO 12996; conditions: hydrolysis using Pseudomonas putida IFO 12996, JP06261787; cited from earlier work
[6] = tested on: hydantoinase obtained from Sigma; test: Specific activity of commercially available hydantoinase (Sigma) towards substrates, HPLC; format: biochemical, Vigna angularis; conditions: Enzyme from Sigma; 5 mM substrate, 50 mM Tris HCl pH 7.5, 30 min, 40° C.
Method: (§1) To determine and compare the specific activity of the Sigma enzyme and the purified hydantoinase (BP) 5 mM of hydantoin, 5-phenylhydantoin or 6-phenyldihydrouracil, respectively, in 50 mM Tris HCl pH 7.5 were incubated with different amounts of enzyme for 30 min at 40° C. The reaction was stopped by adding conc. HCl and then measured by HPLC.

[7] = tested on: hydantoinase isolated in Example 2; test: Specific activity of the hydantoinase isolated in Example 2 towards substrates, HPLC; format: biochemical, Vigna angularis; conditions: Enzyme from Example 2; 5 mM substrate, 50 mM Tris HCl pH 7.5, 30 min, 40° C.
Method: as §1

Structure (SMILES): NC(=O)NC(CC(=O)O)c1ccccc1 (racemic) [N-carbamoyl-β-phenylalanine, (±)—N-carbamoyl-β-phenylalanine]
cyclisation of N-carbamoyl-β-phenylalanine (reverse reaction) [1]: highly (S)-selective

Structure (SMILES): CC1CNC(=O)NC1=O (stereo not shown) [Substrate 8, 5-methyldihydrouracil]
Relative rate of enzymatic hydrolysis [3]: 23

Structure (SMILES): NC(=O)N[C@@H](CC(=O)O)c1ccccc1 [(S)-NCBPA, (S)-N-carbamoyl-β-pheynylalanine]
enantiomeric excess of (S)-NCBPA ([1]; during the whole observation period): exceeded 96%

Structure (SMILES): NC(=O)N[C@H](CC(=O)O)c1ccccc1 [(R)-NCBPA, (R)—N-carbamoyl-β-phenylalanine]
cyclisation of N-carbamoyl-β-phenylalanine (reverse reaction) [1]: no appreciable cyclisation

Structure (SMILES): O=C1CNC(=O)N1 [Hydantoin, hydantoin]
specific activity [6]: 217
specific activity [7]: 425

Structure (SMILES): O=C1NC(=O)C(c2ccccc2)N1 (stereo not shown) [5-Phenylhydantoin, 5-phenylhydantoin]
specific activity [6]: 261
specific activity [7]: 557

Continued, in another order:

background hydrolysis ([2]; Tris buffer pH 7, 50° C.): 0.5%
background hydrolysis ([2]; Tris buffer pH 9, 50° C.): ca. 20%
E value ([1]; selective for the (S)-enantiomer, 5 mM substrate, Tris buffer pH 7.5): > 100
E value [3]: >200
Relative rate of enzymatic hydrolysis [3]: 7
ee (enantiomeric excess) ([4]; Phosphate buffer pH 6.00, 5 mM): >99.90%
ee (enantiomeric excess) ([4]; Phosphate buffer pH 7.00, 5 mM): >99.90%
ee (enantiomeric excess) ([4]; Phosphate buffer pH 7.50, 5 mM): 96.62%
ee (enantiomeric excess) ([4]; Phosphate buffer pH 8.00, 5 mM): 92.73%
ee (enantiomeric excess) ([4]; Tris buffer pH 7.50, 5 mM): >99.90%
specific activity [6]: 6
specific activity [7]: 72
Structure (SMILES): O=C1CC(c2ccccc2)NC(=O)N1 (racemic) [Substrate 4a, (±)-6-phenyldihydrouracil]
enantiomeric excess [5]: up to 51%

E value [3]: >100
Relative rate of enzymatic hydrolysis [3]: 15
Structure (SMILES): O=C1CC(c2ccc(F)cc2)NC(=O)N1 (stereo not shown) [Substrate 4b, 6-(4-fluoro-phenyl)-dihydrouracil]

Relative rate of enzymatic hydrolysis [3]: 100
Structure (SMILES): O=C1CCNC(=O)N1 [Substrate 4e, dihydrouracil]

E value [3]: >100
Relative rate of enzymatic hydrolysis [3]: 41
Structure (SMILES): O=C1CC(c2ccc(Cl)cc2)NC(=O)N1 (stereo not shown) [Substrate 4c, 6-(4-chloro-phenyl)-dihydrouracil]

E value [3]: 5
Relative rate of enzymatic hydrolysis [3]: 52
Structure (SMILES): CC1CC(=O)NC(=O)N1 (stereo not shown) [Substrate 4h, 6-methyldihydrouracil]
